Results reported in patent publication US20040006042A1, “Diaminopyrimidines and combination therapies effective for treatment of P-glycoprotein positive cancers” (priority 1998, published 2004).
Values after ≈ are worked out from the molar mass of the structure shown. Like-named read-outs stand apart in the source and are kept apart here.

Experiments:
[1] = system: Colon 26/clone 10 (C26/10); test: Colon 26/clone 10 i.p. life span study; assay type: in vivo, CD2F1 mice
Description: (§1) To test compounds of the present invention in vivo, the following methodology was used. P388 leukemia and its Adriamycin resistant subline, P388/ADR were passed weekly in DBA/2 mice as i.p. implants of 10^5 and 10^6 cells, respectively. Animals bearing P388/ADR passage were treated with 7 mg/kg Adriamycin on Day 3 post-implant as a resistance selection pressure. C26/clone 10 was passed every 2 weeks into Balb/c mice as tumor fragments (approximately 30 mg) which were obtained from tumors 1 g in mass.
Colon 26/clone 10 (C26/10) life span studies were conducted in CD2F1 mice. C26/C10 cells were implanted i.p. on Day 0. Animals were treated i.p. with test agents in the vehicles described above on Days 3-7 and 10-14. Adriamycin was dosed i.p. in saline on Days 5, 9, and 13. […] Percent T/C values in excess of 130 are indicative of an antitumor effect in this model.

[2] = system: P388/ADR cells; test: Combination of antifolates with FU and LV on P388/ADR proliferation; assay type: cell-based, murine
[3] = system: P388S cells; test: In vitro growth inhibition of P388S cells; assay type: cell-based; details: Mus musculus, P388/S; in vitro; read-out: P388S IC50
[4] = system: P388/ADR leukemia; test: In vivo P388/ADR leukemia life span study; design: species or system CD2F1 mice
[5] = system: P388 murine leukemia cells; test: Combination of antifolates with FU and LV on P388 proliferation; assay type: cell-based
[6] = system: P388 leukemia; test: In vivo P388 leukemia life span study; design: species or system CD2F1 mice; details: maximum tolerated dose, i.p. Days 3-11 (Adriamycin Days 3, 7, 11); >130 = antitumor effect
[7] = system: C26/10 tumor; test: C26/10 s.c. tumor growth delay study; assay type: in vivo, CD2F1 mice; details: tumor growth delay to 750 mg, s.c. implant, treated i.p. Days 3-7 and 10-14; >5 to 6 days = antitumor effect
Description: as §1
For the tumor growth delay studies with C26/10, CD2F1 mice were implanted s.c. with 30 mg tumor fragments in the region of the right axilla with the aid of a trocar on Day 0. Animals were treated i.p. with test agents in the vehicles described above on Days 3-7 and 10-14. Adriamycin was dosed i.p. in saline on Days 5, 9, and 13. Tumors in the treated and control groups were measured twice weekly in two perpendicular dimensions and tumor mass calculated according to the formula: mass (mg)=(a×b^2)/2 where “b” is the smallest tumor dimension and “a” is the largest. Calculations of tumor growth delay, defined as the median time (in days) for the treated tumors to reach 750 mg in size minus the median time (in days) for the control tumors to reach 750 mg in size, were as described previously (Schabel, 1977; Leopold, 1985; Elliot, 1984). Growth delays in excess of 5 to 6 days in the C26/10 model are considered to be an antitumor effect.

[8] = system: C26 murine colon tumor cells; test: Combination of antifolates with FU and LV on C26 proliferation; assay type: cell-based
[9] = system: HT29 human colon adenocarcinoma cells; test: Combination of antifolates with FU and LV on HT-29 proliferation (sulphorhodamine B)
[10] = system: colon cancer; details: cited from earlier work
[11] = system: P388/ADR cells; test: In vitro growth inhibition of P388/ADR cells; assay type: cell-based, murine
[12] = in words, TMQ at a concentration 10-fold higher than the other antifolates

## COc1cc(NCc2ccc3nc(N)nc(N)c3c2C)cc(OC)c1OC [Trimetrexate, reference compound]
[1]; i.p. implant, treated i.p. Days 3-7 and 10-14 (Adriamycin Days 5, 9, 13), >130 = antitumor effect
  C26 ip T/C: 119%
[1]; in words, T/C×100>130 represents in vivo antitumor activity
  activity against C26 colon tumor in vivo: without activity
[2]; P388/ADR, TMQ 10 nM 24 hours, 5 μM FU final 4 hours
  Antifol + FU: 83% of control
[2]; P388/ADR, TMQ 10 nM 24 hours, LV 10 μM final 4.5 hours
  Antifol + LV: 100% of control
[2]; P388/ADR, TMQ 10 nM 24 hours, LV 10 μM final 4.5 hours, 5 μM FU final 4 hours
  Antifol + LV + FU: 76% of control
[2]; P388/ADR, TMQ 10 nM, 24 hours
  Antifol: 92% of control
[2]; [12]
  activity alone against P388/ADR cells: little activity alone
  increase in activity by addition of FU or LV, P388/ADR cells: nor was a significant increase in activity observed
[3]
  IC50: 0.0069 µg/mL (≈ 0.0187 µM)
[4]; in words
  activity against P388/ADR tumors in vivo: inactive
[4]; maximum tolerated dose, i.p. Days 3-11 (Adriamycin Days 3, 7, 11), >130 = antitumor effect
  P388/ADR T/C: 113%
[5]; antifolate 1.0 nM 24 hours, 5 μM FU final 4 hours
  Antifol + FU: 12% of control
[5]; antifolate 1.0 nM 24 hours, LV 10 μM final 4.5 hours
  Antifol + LV: 85% of control
[5]; antifolate 1.0 nM 24 hours, LV 10 μM final 4.5 hours, 5 μM FU final 4 hours
  Antifol + LV + FU: 9% of control
[5]; antifolate 1.0 nM, 24 hours
  Antifol: 80% of control
[6]
  P388S T/C: 164%
[7]
  C26 sc T-C: 6.8 days
[8]; C26, antifolate 0.125 μM 24 hours, 5 μM FU final 4 hours
  Antifol + FU: 65% of Control
[8]; C26, antifolate 0.125 μM 24 hours, LV 10 μM final 4.5 hours
  Antifol + LV: 98% of Control
[8]; C26, antifolate 0.125 μM 24 hours, LV 10 μM final 4.5 hours, 5 μM FU final 4 hours
  Antifol + FU + LV: 64% of Control
[8]; C26, antifolate 0.125 μM, 24 hours
  Antifol: 101% of Control
[8]; in words, 0.125 μM
  effect on C26 proliferation alone: no effect
  synergy with FU and/or LV on C26 cells: no significant synergy
[9]; antifolate 62.5 nM 24 hours, 5 μM FU final 4 hours
  Antifol + FU: 35% of control
[9]; antifolate 62.5 nM 24 hours, LV 10 μM final 4.5 hours
  Antifol + LV: 77% of control
[9]; antifolate 62.5 nM 24 hours, LV 10 μM final 4.5 hours, 5 μM FU final 4 hours
  Antifol + LV + FU: 30% of control
[9]; antifolate 62.5 nM, 24 hours
  Antifol: 75% of control
[10]; TMQ added to LV/FU, colon cancer patients previously treated with FU
  response rate: 20%
[10]; combination of TMQ, FU and LV, metastatic colorectal cancer patients
  response rate: 50%
[11]; Mus musculus, P388/ADR, in vitro
  IC50: 0.152 µg/mL (≈ 0.411 µM)
[11]; ratio resistant (P388/ADR) to sensitive (P388S) IC50
  R/S: 22
